In patent publication US11053204B2, “Pyrimidinyloxy benzene derivatives as herbicides” (FMC Corporation, priority 2015, dated 2021):

Legend:
Type in all cases: in vivo
[1] = system: Italian ryegrass (Lolium multiflorum); assay: Test A preemergence, visual injury rating; settings: Lolium multiflorum, pre-emergence, 240 h, 0 to 100 scale (0 no effect, 100 complete control), read-out: Ryegrass, Italian plant response rating
Outline: (§1)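 Scoring: eye-based comparison with untreated controls, 0 for no effect through 100 for complete control, at about day 10. Treatments: directed soil spray preemergence; foliar spray postemergence on 2–10 cm plants at the one- to two-leaf stage. Medium: loam soil with sand.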

[2] = system: barnyardgrass (Echinochloa crus-galli); assay: Test A preemergence, visual injury rating; settings: Echinochloa crus-galli, pre-emergence, 240 h, 0 to 100 scale (0 no effect, 100 complete control), read-out: Barnyardgrass plant response rating
Outline: as §1

[3] = system: giant foxtail (Setaria faberii); assay: Test A preemergence, visual injury rating; settings: Setaria faberi, pre-emergence, 240 h, 0 to 100 scale (0 no effect, 100 complete control), read-out: Foxtail, Giant plant response rating
Outline: as §1

kochia (Kochia scoparia) = assay: Test A preemergence, visual injury rating; settings: Bassia scoparia, pre-emergence, 240 h, 0 to 100 scale (0 no effect, 100 complete control), read-out: Kochia plant response rating
Outline: as §1

[4] = system: pigweed (Amaranthus retroflexus); assay: Test A preemergence, visual injury rating; settings: Amaranthus retroflexus, pre-emergence, 240 h, 0 to 100 scale (0 no effect, 100 complete control), read-out: Pigweed plant response rating
Outline: as §1

[5] = system: ragweed (common ragweed, Ambrosia elatior); assay: Test A preemergence, visual injury rating; settings: Ambrosia artemisiifolia, pre-emergence, 240 h, 0 to 100 scale (0 no effect, 100 complete control), read-out: Ragweed plant response rating
Outline: as §1

[6] = system: blackgrass (Alopecurus myosuroides); assay: Test C postemergence, plant response rating; settings: Alopecurus myosuroides, post-emergence
Outline: (§2)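 After sowing in loam–sand blend or silt loam, pots were sprayed preemergence; separately grown 1- to 4-leaf plants were sprayed postemergence. Following 13 to 15 d under greenhouse conditions, injury was rated visually on a 0 to 100 scale.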

[7] = system: chickweed (common chickweed, Stellaria media); assay: Test C postemergence, plant response rating; settings: Stellaria media, post-emergence
Outline: as §2

corn (Zea mays) = assay: Test C postemergence, plant response rating; settings: Zea mays, post-emergence
Outline: as §2

[8] = system: crabgrass, large (large crabgrass, Digitaria sanguinalis); assay: Test C postemergence, plant response rating; settings: Digitaria sanguinalis, post-emergence
Outline: as §2

[9] = system: foxtail, giant (giant foxtail, Setaria faberii); assay: Test C postemergence, plant response rating; settings: Setaria faberi, post-emergence
Outline: as §2

[10] = system: galium (catchweed bedstraw, Galium aparine); assay: Test C postemergence, plant response rating; settings: Galium, post-emergence
Outline: as §2

[11] = system: lambsquarters (Chenopodium album); assay: Test C postemergence, plant response rating; settings: Chenopodium album, post-emergence
Outline: as §2

[12] = system: nutsedge, yellow (yellow nutsedge, Cyperus esculentus); assay: Test C postemergence, plant response rating; settings: Cyperus, post-emergence
Outline: as §2

[13] = system: oat, wild (wild oat Avena fatua); assay: Test C postemergence, plant response rating; settings: Avena fatua, post-emergence
Outline: as §2

[14] = system: ryegrass, Italian (Italian ryegrass, Lolium multiflorum); assay: Test C postemergence, plant response rating; settings: Lolium multiflorum, post-emergence
Outline: as §2

soybean (Glycine max) = assay: Test C postemergence, plant response rating; settings: Glycine max, post-emergence
Outline: as §2

[15] = system: wheat (winter wheat, Triticum aestivum); assay: Test C postemergence, plant response rating; settings: Triticum aestivum, post-emergence
Outline: as §2

[16] = 62 g ai/ha, scale 0 to 100 (0 no effect, 100 complete control)
[17] = 125 g ai/ha, scale 0 to 100 (0 no effect, 100 complete control)

`O=C(OCCC(F)(F)F)c1c(Br)cccc1Oc1ncc(Cl)cn1` [Compound 26, 3,3,3-trifluoropropyl 2-bromo-6-[(5-chloro-2-pyrimidinyl)oxy]benzoate] showed a pest or weed control at 125 g/ha ([1]; 125 g ai/ha) of 70%, a pest or weed control at 500 g/ha ([1]; 500 g ai/ha) of 100% and a pest or weed control at 125 g/ha ([2]; 125 g ai/ha) of 100%. It also gave a pest or weed control at 500 g/ha ([2]; 500 g ai/ha) of 100%, a pest or weed control at 125 g/ha ([3]; 125 g ai/ha) of 100% and a pest or weed control at 500 g/ha ([3]; 500 g ai/ha) of 100%. For the same compound, the pest or weed control at 125 g/ha (kochia (Kochia scoparia); 125 g ai/ha) was 100%, the pest or weed control at 500 g/ha (kochia (Kochia scoparia); 500 g ai/ha) was 100% and the pest or weed control at 125 g/ha ([4]; 125 g ai/ha) was 100%. For the same compound, the pest or weed control at 500 g/ha ([4]; 500 g ai/ha) was 100%, the pest or weed control at 125 g/ha ([5]; 125 g ai/ha) was 20% and the pest or weed control at 500 g/ha ([5]; 500 g ai/ha) was 20%. The pest or weed control at 16 g/ha ([6]; 16 g ai/ha, scale 0 to 100) was 10%, the pest or weed control at 31 g/ha ([6]; 31 g ai/ha, scale 0 to 100) was 15% and the pest or weed control at 62 g/ha [6, 16] was 15%. For the same compound, the pest or weed control at 125 g/ha [6, 17] was 35%, the pest or weed control at 16 g/ha ([7]; 16 g ai/ha, scale 0 to 100) was 55% and the pest or weed control at 31 g/ha ([7]; 31 g ai/ha, scale 0 to 100) was 80%. For the same compound, the pest or weed control at 62 g/ha [7, 16] was 85%, the pest or weed control at 125 g/ha [7, 17] was 98% and the Corn plant response rating (crop injury, 0 = no effect, 100 = complete kill) at 16 g/ha (corn (Zea mays); 16 g ai/ha, scale 0 to 100) was 20%. For the same compound, the Corn plant response rating (crop injury, 0 = no effect, 100 = complete kill) at 31 g/ha (corn (Zea mays); 31 g ai/ha, scale 0 to 100) was 25%, the plant injury at 62 g/ha (corn (Zea mays); [16]) was 20% and the plant injury at 125 g/ha (corn (Zea mays); [17]) was 25%. For the same compound, the pest or weed control at 16 g/ha ([8]; 16 g ai/ha, scale 0 to 100) was 10%, the pest or weed control at 31 g/ha ([8]; 31 g ai/ha, scale 0 to 100) was 20% and the pest or weed control at 62 g/ha [8, 16] was 25%. The pest or weed control at 125 g/ha [8, 17] was 65%, the pest or weed control at 16 g/ha ([9]; 16 g ai/ha, scale 0 to 100) was 10% and the pest or weed control at 31 g/ha ([9]; 31 g ai/ha, scale 0 to 100) was 10%. The pest or weed control at 62 g/ha [9, 16] was 10%, the pest or weed control at 125 g/ha [9, 17] was 25% and the pest or weed control at 16 g/ha ([10]; 16 g ai/ha, scale 0 to 100) was 55%. It also gave a pest or weed control at 31 g/ha ([10]; 31 g ai/ha, scale 0 to 100) of 80%, a pest or weed control at 62 g/ha [10, 16] of 95% and a pest or weed control at 125 g/ha [10, 17] of 95%. It also gave a pest or weed control at 16 g/ha ([11]; 16 g ai/ha, scale 0 to 100) of 75%, a pest or weed control at 31 g/ha ([11]; 31 g ai/ha, scale 0 to 100) of 90% and a pest or weed control at 62 g/ha [11, 16] of 98%. It also gave a pest or weed control at 125 g/ha [11, 17] of 98%, a pest or weed control at 16 g/ha ([12]; 16 g ai/ha, scale 0 to 100) of 5% and a pest or weed control at 31 g/ha ([12]; 31 g ai/ha, scale 0 to 100) of 10%. The pest or weed control at 62 g/ha [12, 16] was 10%, the pest or weed control at 125 g/ha [12, 17] was 10% and the pest or weed control at 16 g/ha ([13]; 16 g ai/ha, scale 0 to 100) was 10%. The pest or weed control at 31 g/ha ([13]; 31 g ai/ha, scale 0 to 100) was 10%, the pest or weed control at 62 g/ha [13, 16] was 15% and the pest or weed control at 125 g/ha [13, 17] was 35%. For the same compound, the pest or weed control at 16 g/ha ([14]; 16 g ai/ha, scale 0 to 100) was 5%, the pest or weed control at 31 g/ha ([14]; 31 g ai/ha, scale 0 to 100) was 5% and the pest or weed control at 62 g/ha [14, 16] was 10%. The pest or weed control at 125 g/ha [14, 17] was 10%, the plant injury at 16 g/ha (soybean (Glycine max); 16 g ai/ha, scale 0 to 100) was 65% and the plant injury at 31 g/ha (soybean (Glycine max); 31 g ai/ha, scale 0 to 100) was 55%. The plant injury at 62 g/ha (soybean (Glycine max); [16]) was 65%, the plant injury at 125 g/ha (soybean (Glycine max); [17]) was 75% and the plant injury at 16 g/ha ([15]; 16 g ai/ha, scale 0 to 100) was 0%. It also gave a plant injury at 31 g/ha ([15]; 31 g ai/ha, scale 0 to 100) of 0%, a plant injury at 62 g/ha ([15]; 62 g ai/ha, scale 0 to 100 (0 no effect, 100 complete control), read-out: Wheat plant response rating) of 5% and a plant injury at 125 g/ha [15, 17] of 10%.
